Values after ≈ are worked out from the molar mass of the structure shown. Where two headings read alike, the source gives them in different places.
Experiment: Solubility of compounds in various solvents
Format: physicochemical
Conditions: for solubility: organic solvent or mixture, read-out: Observation: solubility / saturation concentration (S.C.)

COC(=O)N[C@@H](Cc1ccccc1)C(=O)N[C@@H](Cc1ccc(NS(=O)(=O)[O-])cc1)c1csc(-c2cccs2)n1.[Na+] [Compound 1, sodium (4-((S)-2-((S)-2-((methoxycarbonyl)amino)-3-phenylpropanamido)-2-(2-(thiophen-2-yl)thiazol-4-yl)ethyl)phenyl)sulfamate]
solubility (17 °C, Acetone, 17-22° C.): < 60 mg/mL
solubility (17 °C, Acetone:H2O (80:20), 17-22° C.): ≥ 53 mg/mL
solubility (17 °C, DMSO, 17-22° C.): ≥ 106 mg/mL
solubility (17 °C, MeOH, 17-22° C.): ~30 mg/mL
solubility (17 °C, THF, 17-22° C.): < 40 mg/mL

COC(=O)N[C@@H](Cc1ccccc1)C(=O)N[C@@H](Cc1ccc([N+](=O)[O-])cc1)c1csc(-c2cccs2)n1 [Compound F-3, methyl ((S)-1-(((S)-2-(4-nitrophenyl)-1-(2-(thiophen-2-yl)thiazol-4-yl)ethyl)amino)-1-oxo-3-phenylpropan-2-yl)carbamate]
solubility (17 °C, DMF, 17-22° C.): ≥ 100 mg/mL
solubility (17 °C, THF, 17-22° C.): ~5 mg/mL (≈ 9.32 mM)
solubility (17 °C, Toluene, 17-22° C.): < 5 mg/mL
solubility (50 °C, THF, 50-55° C.): ~100 mg/mL (≈ 186 mM)
solubility (60 °C, 2-MeTHF, 60-65° C.): ~15 mg/mL (≈ 28 mM)

CN(C)C.COC(=O)N[C@@H](Cc1ccccc1)C(=O)N[C@@H](Cc1ccc(NS(=O)(=O)O)cc1)c1csc(-c2cccs2)n1 [Compound F-5, trimethylammonium (4-((S)-2-((S)-2-((methoxycarbonyl)amino)-3-phenylpropanamido)-2-(2-(thiophen-2-yl)thiazol-4-yl)ethyl)phenyl)sulfamate]
Observation: solubility / saturation concentration (S.C.) (MeOH, 17-22° C.): Soluble at 93 mg/mL

Reference: patent publication US20240190857A1, “METHODS FOR MANUFACTURE OF SMALL MOLECULE ACTIVATORS OF TIE-2” (EyePoint Pharmaceuticals, Inc., priority 2020, published 2024)
